In paper PMC6685790 (Nature structural & molecular biology, 2008):
Substitutions are numbered along the chain they refer to. Like-named read-outs stand apart in the source and are kept apart here.

What was measured:
[1] = molecular target: T1, GlyR α1^F108A (Homo sapiens, UniProt P23415, F136A); type: cell-based
T1 sequence (P23415 29-457 F136A): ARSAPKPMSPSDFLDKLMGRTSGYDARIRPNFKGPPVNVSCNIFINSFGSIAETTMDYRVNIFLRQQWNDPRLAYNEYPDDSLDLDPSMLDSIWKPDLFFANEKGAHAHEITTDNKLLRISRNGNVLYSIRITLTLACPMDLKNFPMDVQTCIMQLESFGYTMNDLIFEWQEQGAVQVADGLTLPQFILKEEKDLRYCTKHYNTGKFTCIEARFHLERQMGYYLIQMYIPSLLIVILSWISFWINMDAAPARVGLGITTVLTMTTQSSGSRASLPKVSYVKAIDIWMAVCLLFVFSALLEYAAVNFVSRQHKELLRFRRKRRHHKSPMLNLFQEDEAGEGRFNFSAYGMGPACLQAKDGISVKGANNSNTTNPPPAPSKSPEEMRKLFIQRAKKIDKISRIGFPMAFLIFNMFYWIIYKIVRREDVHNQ

[2] = system: Zn^2+-activated GlyRs (ZAGs); type: cell-based, human
[3] = molecular target: T2, GlyR α1^L134A (Homo sapiens, UniProt P23415, L162A); assay: Whole-cell recording of substituted GlyR in HEK cells; type: cell-based
T2 sequence (P23415 29-457 L162A): T1 sequence (P23415 29-457 F136A) with A108F, L134A

[4] = molecular target: T3, GlyR α1^F99A (Homo sapiens, UniProt P23415, F127A); assay: as above; type: cell-based
T3 sequence (P23415 29-457 F127A): T1 sequence (P23415 29-457 F136A) with F99A, A108F

[5] = molecular target: T4, GlyR α1^L98A (Homo sapiens, UniProt P23415, L126A); assay: as above; type: cell-based
T4 sequence (P23415 29-457 L126A): T1 sequence (P23415 29-457 F136A) with L98A, A108F

[6] = read-out: Zn^2+ complexation KD; ref [52]; cited from earlier work

Molecule: N#C[B-](c1ccccc1)(c1ccccc1)c1ccccc1 [CTB, cyanotriphenylborate]
- Effect on Zn^2+-activated currents [1]: abolished
- Standing current remaining after block of spontaneous leak ([2]; CTB 20 μM, considered full abolition of receptor-mediated leak): less than 50 pA

Molecule: c1ccc(CN(CCN(Cc2ccccn2)Cc2ccccn2)Cc2ccccn2)nc1 [TPEN, N,N,N’,N’-tetrakis-(2-pyridylmethyl)-ethylenediamine]
- Effect on leak current (component caused by Zn^2+ contamination) ([2]; TPEN 100 μM, α1^L98A, α1^F99A, α1^F108A, α1^L134A): reduced

Molecule: O=C1C[C@@H]2OCC=C3CN4CC[C@]56c7ccccc7N1[C@H]5[C@H]2[C@H]3C[C@H]46 [strychnine]
- Loss of potency inhibiting leak current compared to glycine-activated currents [2]: 10 fold
- Attenuation of leak current [3]: 90 ± 4%
- Attenuation of leak current [4]: 100%
- Effect on Zn^2+ activation [5]: inhibited

Molecule: O=C(O)CNC(CO)(CO)CO [tricine]
- Kd [6]: 10 µM

Molecule: picrotoxin
- Effect on Zn^2+ activation ([5]; picrotoxin, α1^L98A, Zn^2+ EC50-activated currents (Fig. 2f)): inhibited
